According to patent publication EP1201248A2, “Combination therapy of angiotensin converting enzyme inhibitor, side-effect reduced amount of aldosterone antagonist and diuretic for treatment of cardiovascular disease” (priority 1995, dated 1996):

Experiments:
[1] = Human clinical trial of ACE inhibitor, spironolactone and loop diuretic: clinical laboratory values and neurohormones
[2] = Human clinical trial of ACE inhibitor, spironolactone and loop diuretic: adverse events, hyperkalemia incidence, hospitalizations, deaths; details: patients previously at the 50 mg dose
[3] = Human clinical trial of ACE inhibitor, spironolactone and loop diuretic: weight, vital signs and cardiac assessments; assay type: in vivo, humans; details: for Supine diastolic BP, Mean Change from Baseline to Week 12 / Supine pulse, Mean Change from Baseline to Week 12 / Supine systolic BP, Mean Change from Baseline to Week 12 / Weight, Mean Change from Baseline to Week 12: with stable ACE inhibitor and loop diuretic, spread in parentheses
Excerpt: Concurrent medication within the past 30 days. • 2. 12-lead ECG • 3. […] Signs and symptoms within the past 30 days.
All statistical methods were two-sided.

[4] = spironolactone 50 mg/day to 100 mg/day (average 73 mg/day) and captopril; 90-patient study; cited from earlier work
[5] = cited from earlier work
[6] = spironolactone 100 mg/day coadministered with an ACE inhibitor; congestive heart failure; cited from earlier work

## CC(=O)S[C@@H]1CC2=CC(=O)CC[C@]2(C)[C@H]2CC[C@@]3(C)[C@@H](CC[C@@]34CCC(=O)O4)[C@H]12 [Spironolactone, 17-hydroxy-7a-mercapto-3-oxo-17a-pregn-4-ene-21-carboxylic acid γ-lactone acetate]
[1]; Day 9, Week 4 and Week 12 (P ≤0.001)
  PRA, change from baseline, dose-response: greater increases in PRA
[1]; Week 12 (p = 0.002)
  Urinary aldosterone excretion, change from baseline, dose response: Greater increases were seen at higher doses
[1]; all active treatments, all treatment visits
  N-Terminal Atrial Natriuretic Factor (ANF), change from baseline: decreases from baseline at all treatment visits
[1]; all treatment period visits (p <0.001)
  serum potassium, change from baseline, dose-response: larger increases in potassium
[2]
  deaths within 30 days after the study was completed: Three patients died
[3]; 25 mg, 50 mg and 75 mg groups, all visits, standing and supine
  mean systolic and diastolic blood pressure, change: decreases in mean systolic and diastolic blood pressure
[3]; 75 mg dose group, Day 9 and Week 4, not observed at later visits
  body weight, change from baseline: more weight loss than other patients
[3]; Day 9 (p = 0.019), not seen at later visits (p >0.20)
  sodium retention score, dose response: higher doses showing more reduction in sodium retention score
[3]; Week 8 (p = 0.004), compared to the placebo group, not observed at Week 12
  changes in loop diuretic therapy: more patients on the higher doses of spironolactone had decreases in the loop diuretic dose
[3]; spironolactone 25 mg/d
  Supine diastolic BP, Mean Change from Baseline to Week 12: -2.74 ( 9.57)
  Supine pulse, Mean Change from Baseline to Week 12: -1.40(10.00) BPM
  Supine systolic BP, Mean Change from Baseline to Week 12: -4.46(13.97)
  Weight, Mean Change from Baseline to Week 12: -0.16 (3.02)
[3]; spironolactone 50 mg/d
  Supine diastolic BP, Mean Change from Baseline to Week 12: -5.11(11.11)
  Supine pulse, Mean Change from Baseline to Week 12: -3.21(11.27) BPM
  Supine systolic BP, Mean Change from Baseline to Week 12: -7.04(15.83)
  Weight, Mean Change from Baseline to Week 12: 0.62 (2.05)
[3]; spironolactone 75 mg/d
  Supine diastolic BP, Mean Change from Baseline to Week 12: -5.91 (9.05)
  Supine pulse, Mean Change from Baseline to Week 12: -1.07(13.79) BPM
  Supine systolic BP, Mean Change from Baseline to Week 12: -5.68(15.62)
  Weight, Mean Change from Baseline to Week 12: -0.81 (2.70)
[3]; spironolactone groups vs placebo group
  NYHA Class, improvement: the difference was not statistically significant
[4]
  control of refractory CHF: effective to control refractory CHF without serious incidents of hyperkalemia
[5]; cohort treated with spironolactone sub-cutaneously, side-by-side with a captopril cohort
  fibrosis in hypertensive rats: found to prevent fibrosis in the hypertensive-rat cohort
[5]; irrespective of left ventricular hypertrophy and hypertension
  fibrosis in animal models: shown to prevent fibrosis in animal models
[6]
  patients in whom treatment was highly effective: 13 of 16
